Laboratory results: patent US8637664B2, “Alkyl 4- [4- (5-oxo-2,3,5, 11a-tetrahydo-5H-pyrrolo [2, 1-c] [1,4] benzodiazepine-8-yloxy)-butyrylamino]-1H-pyrrole-2-carboxylate derivatives and related compounds for the treatment of a proliferative disease” (Spirogen SARL, priority 2005, dated 2014)
Like-named read-outs stand apart in the source and are kept apart here.

Assays:
[1] = biological target: 262 bp DNA fragment (MS2F or MS2R) of MS2 plasmid; assay: DNase I footprinting on MS2 DNA fragment; format: binding
Protocol: The sequence selectivity of the six PBD-pyrrole conjugates (21, 23, 25, 27, 29) was evaluated by standard DNA footprinting on a fragment of MS2 as follows, in accordance with the technique described in Martin, C., et al., (Martin, C., et al., Biochemistry, 44(11), 4135-4147 (2005))
Forward (5′-[…]-3′) or reverse (5′-[…]-3′) primer was 5′-end labelled with ^32P by T4 polynucleotide kinase. Labelling mixture contained primer (5 pmol; Sigma-Genosys), 10× kinase buffer (1 μl; Promega), (γ-^32P)-ATP (2μ of 10 μCi/μl, 6000 Ci/mmol; Perkin Elmer Life Sciences), and T4 polynucleotide kinase (10 U; Promega) in a 10 μl final volume. Labelling mix was incubated at 37° C. for 30 minutes followed by inactivation of the kinase at 70° C. for 10 minutes. A 262 bp DNA fragment (MS2F or MS2R) was amplified from the MS2 plasmid using PCR with either labelled forward or reverse primer and the unlabelled primer as required. Reactions were comprised of labelled primer mix (10 μl), 10×PCR buffer (5 μl; Sigma), dNTPs (5 μl; 2.5 mM each of A, C, G and T, Amersham Pharmacia), unlabelled primer as required ([…]), MS2 plasmid template DNA (10 ng) and Taq DNA polymerase (5 U; Sigma) in a 50 μl final volume. Radiolabelled 262-mer was purified by non-denaturing polyacrylamide gel electrophoresis, elution, filtration and EtOH precipitation and was resuspended in a solution of Tris-HCl (10 mM) pH 7.4/NaCl (10 mM) to yield an activity of 200 counts per second per 5 μl when held up, in a pipette tip, to a capped Morgan series 900 mini-monitor.
For DNase I footprinting radiolabelled 262-mer (2 μl) was incubated overnight (16-18 h) with drug solution (388 μl) or in an aqueous buffer [HEPES (20 mM) pH 7.9, NaCl (50 mM), MgCl2 (1 mM), DTT (5 mM), 10% glycerol] in control reactions. Enzymatic cleavage was initiated by addition of DNase I solution (10 μl of 0.05 U/ml; Sigma) in aqueous NaCl (200 mM), MgCl2 (20 mM) and MnCl2 (20 mM) and halted with stop solution [40 μl of NaCl (2.25 M), EDTA (150 mM) pH 8.0, 0.57 μg/μl glycogen (0.57 μg/μl; Roche), poly(dl-dC).poly(dl-dC) DNA (19.3 ng/μl; Amersham Pharmacia)]. From this mixture, digested DNA fragments were prepared for electrophoresis following the protocol of Trauger & Dervan, and were loaded on to a preheated 8% denaturing polyacrylamide gel. Electrophoresis in 1×TBE buffer was allowed to proceed for 100 min at 70 W (1600-2000 V). The gel was the fixed in acetic acid (10% v/v) and methanol (10% v/v) for 15 minutes followed by being blotted onto Whatman 3 mM paper and vacuum-dried at 80° C. for 45 minutes.
Dried gels were stored at room temperature in phosphor storage screens (Molecular Dynamics) for a minimum period of 12 h. Data were collected from exposed screens using a Molecular Dynamics 425E Phosphorlmager and transferred to ImageQuant v1.2 software (Molecular Dynamics) for analysis. Data were expressed as the differential cleavage between control and sample lanes. Peaks were integrated and differential cleavage calculated as ln(fd)−ln(fc); (fd is the fractional cleavage at any particular bond in the presence of drug and fc is the fractional cleavage of the same bond in the control). Maxam-Gilbert G+A marker lanes were prepared in the usual fashion.
The vast majority of footprint sites are common features in the binding profiles of all six conjugates, with only a small number of sites being footprinted by a subset of the family. Even more unexpectedly, no site is footprinted by only one molecule (in fact, the fewest number of conjugates that bind at any single site is four). The differential cleavage plot provides footprinting profiles at a supramaximal concentration colour-coded for each conjugate which illustrates a striking degree of overlap. Although there is no conspicuous change in footprinting patterns as the number of pyrroles units in each conjugate increases, there are changes in two other features, namely, the apparent binding affinity and the width of the footprinted site. […]

[2] = system: calf thymus DNA (CT-DNA); assay: DNA thermal denaturation (melting) studies; format: binding; conditions: CT-DNA 100 μM DNAp, compound 20 μM, 37 °C; for Induced ΔTm after incubation 0 hours: pH 7.00, 0 hours; for Induced ΔTm after incubation 4 hours: pH 7.00, 4 hours; for Induced ΔTm after incubation 18 hours: pH 7.00, 18 hours
Outline: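 CT-DNA at 100 μM (50 μM bp) with test compound at 20 μM in pH 7.00 10 mM sodium phosphate/1 mM EDTA, preincubated at 37.0 °C for 0–18 h (up to 72 h for some compounds). Absorbance at 260 nm, heated 1 °C/min over 45–98 °C; Tm from melting-profile midpoint, ΔTm versus free DNA, MeOH-corrected, mean±SD of ≥3.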

Row | Structure (SMILES) | IC50 ([1]; read-out: DNase IC50 (apparent binding affinity; 50% inhibition of DNase I-mediated cleavage), estimated by eye, site 5′-62CAATACACA70-3′) [nM] | Induced ΔTm after incubation 0 hours [2] [°C] | Induced ΔTm after incubation 4 hours [2] [°C] | Induced ΔTm after incubation 18 hours [2] [°C] | apparent binding affinity of C11 relative to 25 ([1]; C11 approximately 3 μM versus 25 30-100 nM) | Footprint Position D ([1]; MS2 DNA fragment, position D) | Footprint Position G ([1]; MS2 DNA fragment, position G) | Footprint Position K ([1]; MS2 DNA fragment, position K) | Footprint Position L ([1]; MS2 DNA fragment, position L) | Footprint Position M ([1]; MS2 DNA fragment, position M) | IC50 ([1]; estimated by eye from footprint gel, read-out: DNase IC50 (apparent binding affinity)) [nM]
1 | COC(=O)c1cc(NC(=O)c2cc(NC(=O)CCCOc3cc4c(cc3OC)C(=O)N3CCC[C@H]3C=N4)cn2C)cn1C [Compound 23, (11aS) Methyl 4-({4-[4-(7-Methoxy-6-oxo-2,3,5,11a-tetrahydro-5H-pyrrolo[2,1-c][1,4]benzodiazepine-8-yloxy)-butyrylamino]-1-methyl-1H-pyrrole-2-carbonyl}-amino)-1-methyl-1H-pyrrole-2-carboxylate] | 100 to 300 | 13.9 | 15.0 | 15.6 | – | – | – | – | – | – | –
2 | COC(=O)c1cc(NC(=O)c2cc(NC(=O)c3cc(NC(=O)CCOc4cc5c(cc4OC)C(=O)N4CCC[C@H]4C=N5)cn3C)cn2C)cn1C [Compound C11, (11aS) Methyl 4-{[4-({4-[4-(7-Methoxy-5-oxo-2,3,5,11a-tetrahydro-5H-pyrrolo[2,1-c][1,4]benzodiazepine-8-yloxy)-propionylamino]-1-methyl-1H-pyrrole-2-carbonyl]-amino)-1-methyl-1H-pyrrole-2-carbonyl]-amino}-1-methyl-1H-pyrrole-2-carboxylate] | – | 7.9 | 8.4 | 9.6 | 30-100 fold | lack of footprints | lack of footprints | much weaker binding | much weaker binding | lack of footprints | ~3000
